According to patent US20200095296A1, “USE OF PEPTIDES AS BIOMARKERS IN THE DIAGNOSIS, CONFIRMATION AND TREATMENT OF A NEUROLOGICAL DISORDER AND TCR AND/OR HLA IMMUNOPROFILING IN NEURODEGENERATIVE DISEASE” (THE TRUSTEES OF COLUMBIA UNIVERSITY IN THE CITY OF NEW YORK, priority 2017, published 2020):
Numbering of substitutions follows the chain as printed. pIC50: −log10 of the molar value. Like-named read-outs stand apart in the source and are kept apart here.

Tests used:
DRB1*11:01 = DRB1*11:01 (Homo sapiens, UniProt P01903+P01911, A100R/A169T/A87E/I96F/K41T/L162R/M171V/P40S/Q125H/Q178H/Q39Y/Q99D/R42S/S66Y/T262R/V115G/W38E); assay: competition binding assay, purified HLA DRB1*11:01; settings: for IC50: purified HLA, radiolabeled peptide competition, nM, read-out: binding to DRB1*11:01 (IC50)
DRB1*01:01 = DRB1*01:01 (Homo sapiens, UniProt P01903+P01911, A100R/D57E/F55L/F60I/F76Y/I96L/L162R/M171V/P40L/Q125E/R42F/V115G/Y59C); assay: competition binding assay, purified HLA DRB1*01:01; settings: for IC50: purified HLA, radiolabeled peptide competition, nM, read-out: binding to DRB1*01:01 (IC50)
DRB4*01:01 = DRB4*01:01 (Homo sapiens, UniProt P01903+P13762, G164S); assay: competition binding assay, purified HLA DRB4*01:01; settings: for IC50: purified HLA, radiolabeled peptide competition, nM, read-out: binding to DRB4*01:01 (IC50)
DPB1*05:01 = target: T1, DPB1*05:01 (Homo sapiens, UniProt P04440+P20036, A65V/A84E/F191V/F64L/G113D/G114E/K142R/L158P/M116V/M62Q/P115A/Q81R/R125K/T114A/T199I/T259P/V234M); assay: competition binding assay, purified HLA DPB1*05:01
T1 sequence (P20036 29-260 M62Q/Q81R/T114A/K142R/L158P/F191V/T259P): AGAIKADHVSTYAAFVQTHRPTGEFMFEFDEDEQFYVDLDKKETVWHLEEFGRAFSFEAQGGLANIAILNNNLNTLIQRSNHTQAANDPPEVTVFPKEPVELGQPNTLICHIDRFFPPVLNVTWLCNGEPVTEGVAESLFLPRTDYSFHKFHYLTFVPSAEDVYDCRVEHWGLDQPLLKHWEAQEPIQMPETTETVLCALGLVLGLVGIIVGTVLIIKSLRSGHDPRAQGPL
T1 sequence (P04440 30-258 F64L/A65V/A84E/G113D/G114E/P115A/M116V/R125K/T199I/V234M): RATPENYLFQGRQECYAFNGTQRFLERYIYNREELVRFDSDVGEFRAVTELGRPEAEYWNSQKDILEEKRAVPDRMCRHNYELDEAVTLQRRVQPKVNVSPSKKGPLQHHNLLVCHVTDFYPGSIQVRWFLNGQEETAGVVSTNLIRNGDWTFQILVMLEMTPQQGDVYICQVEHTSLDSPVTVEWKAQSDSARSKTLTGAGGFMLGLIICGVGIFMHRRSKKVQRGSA

DRB1*07:01 = DRB1*07:01 (Homo sapiens, UniProt P01903+P01911, A100R/A102G/A103Q/D57E/D86V/E43K/F76Y/K127E/L162R/M171V/P40G/Q125H/Q99D/R33Q/R42Y/R54Q/S133A/S66F/T210M/V115G/Y107V/Y59L/Y89S); assay: competition binding assay, purified HLA DRB1*07:01; settings: for IC50: purified HLA, radiolabeled peptide competition, nM, read-out: binding to DRB1*07:01 (IC50)
DPB1*02:01 = target: T2, DPB1*02:01 (Homo sapiens, UniProt P04440+P20036, A65V/A84D/A85E/K98E); assay: competition binding assay, purified HLA DPB1*02:01
T2 sequence (P20036 29-260): T1 sequence (P20036 29-260 M62Q/Q81R/T114A/K142R/L158P/F191V/T259P) with Q34M, R53Q, A86T, R114K, P130L, V163F, P231T
T2 sequence (P04440 30-258 A65V/A84D/A85E/K98E): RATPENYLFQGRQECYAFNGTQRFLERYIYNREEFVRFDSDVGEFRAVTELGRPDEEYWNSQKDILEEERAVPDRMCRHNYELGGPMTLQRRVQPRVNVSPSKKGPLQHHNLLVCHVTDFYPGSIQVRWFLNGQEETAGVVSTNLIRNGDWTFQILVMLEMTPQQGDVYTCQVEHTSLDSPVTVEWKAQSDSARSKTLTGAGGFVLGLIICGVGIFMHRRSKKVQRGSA

DRB1*03:01 = DRB1*03:01 (Homo sapiens, UniProt P01903+P01911, A100K/A102G/A103R/A169T/F55Y/I96L/K41T/L162R/M171V/P40S/Q125H/Q178H/Q39Y/R42S/S66N/T106N/T262R/W38E/Y61H); assay: competition binding assay, purified HLA DRB1*03:01; settings: for IC50: purified HLA, radiolabeled peptide competition, nM, read-out: binding to DRB1*03:01 (IC50)
DRB1*12:01 = DRB1*12:01 (Homo sapiens, UniProt P01903+P01911, A100R/A169T/D57E/D86V/F55L/H45Y/K41T/L162R/M171V/P40S/Q125H/Q178H/Q39Y/Q99D/R42G/S66L/T262R/V114A/V67L/W38E/Y59H/Y61H/Y89S); assay: competition binding assay, purified HLA DRB1*12:01; settings: for IC50: purified HLA, radiolabeled peptide competition, nM, read-out: binding to DRB1*12:01 (IC50)
DRB1*04:05 = DRB1*04:05 (Homo sapiens, UniProt P01903+P01911, A100R/A169T/D86S/F76Y/I96L/K127E/L162R/M171V/N62H/P40V/Q125Y/R42H/S133A/S149N/S66Y/V115G/V209L/W38E); assay: competition binding assay, purified HLA DRB1*04:05; settings: for IC50: purified HLA, radiolabeled peptide competition, nM, read-out: binding to DRB1*04:05 (IC50)
DPB1*03:01 = target: T3, DPB1*03:01 (Homo sapiens, UniProt P04440+P20036, A65V/A84D/A85E/E86D/F38Y/G113D/G114E/G40L/I94L/L37V/M105V/M116V/P115A/R125K/T199I); assay: competition binding assay, purified HLA DPB1*03:01
T3 sequence (P20036 29-260): T1 sequence (P20036 29-260 M62Q/Q81R/T114A/K142R/L158P/F191V/T259P) with Q34M, R53Q, A86T, R114K, P130L, V163F, P231T
T3 sequence (P04440 30-258 L37V/F38Y/G40L/A65V/A84D/A85E/E86D/I94L/M105V/G113D/G114E/P115A/M116V/R125K/T199I): T1 sequence (P04440 30-258 F64L/A65V/A84E/G113D/G114E/P115A/M116V/R125K/T199I/V234M) with L8V, F9Y, G11L, L35F, E55D, A56E, E57D, I65L, M76V, M205V

DRB5*01:01 = DRB5*01:01 (Homo sapiens, UniProt P01903+Q30154); assay: competition binding assay, purified HLA DRB5*01:01; settings: for IC50: purified HLA, radiolabeled peptide competition, nM, read-out: binding to DRB5*01:01 (IC50)
DRB1*13:02 = DRB1*13:02 (Homo sapiens, UniProt P01903+P01911, A100E/A169T/K41T/L162R/M171V/P40S/Q125H/Q178H/Q39Y/Q99D/R42S/S66N/T262R/V115G/W38E/Y61H); assay: competition binding assay, purified HLA DRB1*13:02; settings: for IC50: purified HLA, radiolabeled peptide competition, nM, read-out: binding to DRB1*13:02 (IC50)
DRB1*09:01 = DRB1*09:01 (Homo sapiens, UniProt P01903+P01911, A100R/A103E/D57H/D86V/F55Y/F60I/F76Y/I96F/K127E/L162R/M171V/P40D/Q125H/Q99R/R33Q/R42F/S133A/S66N/T210M/V115G/W38K/Y107V/Y59G/Y89S); assay: competition binding assay, purified HLA DRB1*09:01; settings: for IC50: purified HLA, radiolabeled peptide competition, nM, read-out: binding to DRB1*09:01 (IC50)

Structure (SMILES)	IC50 (DRB1*11:01)	IC50 (DRB1*01:01)	IC50 (DRB4*01:01)	IC50 (DRB1*07:01)	IC50 (DRB1*03:01)	IC50 (DRB1*12:01)	IC50 (DRB1*04:05)	IC50 (DRB5*01:01)	IC50 (DRB1*13:02)	IC50 (DRB1*09:01)	pIC50 (DPB1*05:01)	pIC50 (DPB1*02:01)	pIC50 (DPB1*03:01)	further results
CSCC[C@H](NC(=O)[C@H](CCC(=O)O)NC(=O)[C@H](Cc1ccc(O)cc1)NC(=O)[C@H](C)NC(=O)[C@H](CCC(=O)O)NC(=O)[C@H](CC(N)=O)NC(=O)[C@@H](N)CC(=O)O)C(=O)N1CCC[C@H]1C(=O)N[C@@H](COP(=O)(O)O)C(=O)N[C@@H](CCC(=O)O)C(=O)N[C@@H](CCC(=O)O)C(=O)NCC(=O)N[C@@H](Cc1ccc(O)cc1)C(=O)N[C@@H](CCC(N)=O)C(=O)N[C@@H](CC(=O)O)C(=O)O	> 10000 nM	> 10000 nM	> 10000 nM	> 10000 nM	> 10000 nM	> 10000 nM	> 10000 nM	> 10000 nM	> 10000 nM	> 10000 nM				IC50 (DPB1*05:01; purified HLA, radiolabeled peptide competition, nM, read-out: binding to DPB1*05:01 (IC50)): > 10000 nM; IC50 (DPB1*02:01; purified HLA, radiolabeled peptide competition, nM, read-out: binding to DPB1*02:01 (IC50)): > 10000 nM; IC50 (DPB1*03:01; purified HLA, radiolabeled peptide competition, nM, read-out: binding to DPB1*03:01 (IC50)): > 10000 nM
CSCC[C@H](NC(=O)[C@@H](N)CCC(=O)O)C(=O)N1CCC[C@H]1C(=O)N[C@@H](COP(=O)(O)O)C(=O)N[C@@H](CCC(=O)O)C(=O)N[C@@H](CCC(=O)O)C(=O)NCC(=O)N[C@@H](Cc1ccc(O)cc1)C(=O)N[C@@H](CCC(N)=O)C(=O)N[C@@H](CC(=O)O)C(=O)N[C@@H](Cc1ccc(O)cc1)C(=O)N[C@@H](CCC(=O)O)C(=O)N1CCC[C@H]1C(=O)N[C@@H](CCC(=O)O)C(=O)N[C@@H](C)C(=O)O	> 10000 nM	> 10000 nM	> 10000 nM	> 10000 nM	> 10000 nM	> 10000 nM	> 10000 nM	> 10000 nM	> 10000 nM	> 10000 nM	< 5.00	< 5.00	< 5.00	
CSCC[C@H](NC(=O)[C@H](CCC(=O)O)NC(=O)[C@H](Cc1ccc(O)cc1)NC(=O)[C@H](C)NC(=O)[C@H](CCC(=O)O)NC(=O)[C@H](CC(N)=O)NC(=O)[C@@H](N)CC(=O)O)C(=O)N1CCC[C@H]1C(=O)N[C@@H](CO)C(=O)N[C@@H](CCC(=O)O)C(=O)N[C@@H](CCC(=O)O)C(=O)NCC(=O)N[C@@H](Cc1ccc(O)cc1)C(=O)N[C@@H](CCC(N)=O)C(=O)N[C@@H](CC(=O)O)C(=O)O											< 5.00	< 5.00	< 5.00	pIC50 (DRB1*11:01): < 5.00; pIC50 (DRB1*01:01): < 5.00; pIC50 (DRB4*01:01): < 5.00; pIC50 (DRB1*07:01): < 5.00; pIC50 (DRB1*03:01): < 5.00; pIC50 (DRB1*12:01): < 5.00; pIC50 (DRB1*04:05): 5.71; pIC50 (DRB5*01:01): < 5.00; pIC50 (DRB1*13:02): < 5.00; pIC50 (DRB1*09:01): 5.34
